Data as given in patent US20150141523A1, “COMPOUNDS FOR USE IN THE TREATMENT OF AUTOIMMUNE INFLAMMATORY DISEASE” (Venantius Limited, priority 2012, published 2015).

What was measured:
[1] = tested on: CD-1 mice; test: Methylated bovine serum albumin (mBSA) delayed-type hypersensitivity mouse paw swelling; format: in vivo; settings: 10 mg/kg i.p.; mBSA challenge alone 107%
Method: CD-1 mice (25-35 gms) were anaesthetised with halothane and immunised intradermal (i.d.) with mBSA/Freunds complete adjuvant containing Mycobacterium butyricum (FCA(B)) emulsion at four sites (62.5 μg/25 μl at each site) on the shaved chest on day 1. The mBSA/FCA(B) is prepared by emulsifying equal volumes of mBSA and FCA(B) solutions (the mBSA solution was first prepared in sterile isotonic saline at a concentration of 5 mg/mL). On days 8 and 9, mice were dosed intraperitoneal (i.p.) with either 1% carboxymethylcellulose (CMC), CycA or a novel compound in 1% CMC. Two hours after the second i.p. dose (day 9), anaesthetised mice were challenged, by injecting mBSA in saline subcutaneous (s.c.) in the dorsal surface of the right hind paw and s.c. in the left hind paw with saline alone (20 μl each injection). 24 hours later, mice were sacrificed by cervical dislocation, and the swelling of each paw was measured in triplicate with a plethysmometer.
Paw swelling (% difference)={mBSA injected paw volume (mls)}−{saline injected paw volume (mls)}×100%
Saline Injected Paw Volume (mls)

[2] = tested on: BalbC mice; test: Arachidonic acid mouse ear oedema model; format: in vivo; settings: 300 μg/ear in acetone, topical; arachidonic acid alone 86%
Method: The arrachidonic mouse ear oedema model is an acute inflammation model based on activation of ecosanoid pathways. The mouse ear oedema model was performed using BalbC mice (25-35 g), of either sex. The ear was treated by the topical application (10 μl) of solvent (acetone 100%) or test drug (300 μg/ear in acetone) or Indomethacin (300 μg/ear in acetone). After one hour, oedema was induced by the topical application of arachidonic acid (10 μl at 0.4 g/ml in acetone). The width of each ear was measured, both before and 60 min after the induction of oedema, using a micrometer screw gauge. Ear oedema was calculated by comparing the ear width before and after induction of oedema and expressed as percentage normal. Animals were killed using CO2, without recovering from sedation.

[3] = tested on: IL-2 secretion from Jurkat T cells; test: IL-2 secretion from activated Jurkat T cells (ELISA); format: cell-based, human; settings: for IL-2 [ ]pg/ml (1) / IL-2 % Control (1): experiment (1); for IL-2 % Control (1) / IL-2 % Control (2) / IL-2 % Control (3): relative to DMSO 0.1%; for IL-2 [ ]pg/ml (2) / IL-2 % Control (2): experiment (2); for IL-2 [ ]pg/ml (3) / IL-2 % Control (3): experiment (3)
Method: The T cell line Jurkat 6.1 (ATCC) was used. Cells were pre-treated for 30 min with 1 μM or 10 μM of the respective compound and then stimulated with plate-bound anti-CD3 (BD Pharmingen) and anti-CD28 (AnCell). DMSO was used as vehicle control. The immunosuppressive agent Cyclosporine A was used as a control for inhibition of IL-2 production. After 24 hs the supernatant was collected and IL-2 secretion was measured by ELISA.
Jurkat T cells were cultured in RMPI-1640 medium containing 10 % Foetal Bovine Serum, Penicillin/Streptomycin and L-Glutamine in T-75cm2 flasks at 37° C. and 5 % CO2. Cells were seeded into new culture flasks at a density of 1-3×10^5 cells per ml and maintained at a density of 0.5−1×10^6 cells per ml.
(A) Anti-TCR/CD28-mediated activation of Jurkat cells: Experiments involving anti-TCR/CD28-mediated activation of Jurkat T lymphocytes were carried out on 24-well cell culture plates. The plates were coated with a 1/100 dilution of rabbit anti-mouse IgG in sterile PBS (1×) and incubated overnight at 4OC. Unbound antibody was aspirated and the wells were gently rinsed with warm sterile PBS. The PBS was aspirated and the wells were coated with a 1/100 dilution of anti-TCR antibody (OKT-3) and a 1/200 dilution of anti-CD28 antibody (both antibodies pre-mixed prior to addition to the plates) in sterile PBS. The plates were then incubated for 1-2 hours at 37° C. Unbound antibody was aspirated and the wells were gently rinsed with warm PBS. The PBS was left on the plate until the Jurkat cells were ready to be added to the plate. The Jurkat cells were harvested from the T-75cm2 cell culture flasks and resuspended at a density of 0.5×10^6 cells per ml. The compounds were dissolved at a specified stock concentration (see results section) and diluted to the required concentration by adding the drug to the cell suspension. The cells were then pre-incubated with the compounds or with an equivalent volume of drug vehicle control (DMSO) for 30 minutes prior to adding the cell suspension to the antibody-coated plates. Cyclosporine A (1 μM) was used as a positive control to inhibit IL-2 production from activated T cells and was preincubated with the 6 cells as described above in parallel. The cells were then incubated on the plates with the acti-TCR/CD28 antibodies for 24 hours at 37° C. and 5% CO2 in a humidified atmosphere. After 24 hours, the cell suspension was removed from the plates and the cells were pelleted by centrifugation. The cell culture supernatant was saved and analysed for secreted IL-2 by ELISA. The cell pellet was saved and cell viability was measured using Acridine Orange/Ethidium Bromide cell viability staining solution.
(B) PHA/PMA-mediated activation of Jurkat cells Jurkat cells were resuspended at a concentration of 0.5×10^6 cells per ml and the Pharmatrin compounds at the desired concentration or an equivalent volume of drug vehicle control (DMSO) were added to the cells and incubated for 30 minutes. Cyclosporine A (1 ∝M) was used as a positive control to inhibit IL-2 production from activated T cells and was preincubated with the cells as described above in parallel. PHA and PMA were added to the cell suspension (10 ∝g/ml and 10 ng/ml respectively) and the cells were plated onto uncoated 24-well plates. The cells were incubated on the plates for 24 hours at 37° C. and 5 % CO2 in a humidified atmosphere. After 24 hours, the cell suspension was removed from the plates and the cells were pelleted by centrifugation. The cell culture supernatant was saved and analysed for secreted IL-2 by ELISA.
The cell culture supernatants were analysed for IL-2 by ELISA (96-well plate format) using the Human IL-2 ELISA kit from R&D Systems Europe. This assay was carried out using the standard protocol outlined by the company. Samples and standards (recombinant human IL-2 provided by R&D Systems) were analysed in triplicate. […]

| Structure (SMILES) | mBSA paw swelling [1] [%] | ear swelling (increase in ear thickness) [2] [%] | IL2 release from Jurkat cells [3] | IL-2 [ ]pg/ml (1) ([3]; 0.3 uM) [pg/mL] | IL-2 % Control (1) ([3]; 0.3 uM) [%] | IL-2 [ ]pg/ml (2) ([3]; 0.3 uM) [pg/mL] | IL-2 % Control (2) ([3]; 0.3 uM) [%] | IL-2 [ ]pg/ml (3) ([3]; 0.3 uM) [pg/mL] | IL-2 % Control (3) ([3]; 0.3 uM) [%] | IL-2 [ ]pg/ml (1) ([3]; 1 uM) [pg/mL] | IL-2 % Control (1) ([3]; 1 uM) [%] | IL-2 [ ]pg/ml (2) ([3]; 1 uM) [pg/mL] | IL-2 % Control (2) ([3]; 1 uM) [%] | IL-2 [ ]pg/ml (3) ([3]; 1 uM) [pg/mL] | IL-2 % Control (3) ([3]; 1 uM) [%] | IL-2 [ ]pg/ml (1) ([3]; 3 uM) [pg/mL] | IL-2 % Control (1) ([3]; 3 uM) [%] | IL-2 [ ]pg/ml (2) ([3]; 3 uM) [pg/mL] | IL-2 % Control (2) ([3]; 3 uM) [%] | IL-2 [ ]pg/ml (3) ([3]; 3 uM) [pg/mL] | further results |
| --- | --- | --- | --- | --- | --- | --- | --- | --- | --- | --- | --- | --- | --- | --- | --- | --- | --- | --- | --- | --- | --- |
| O[C@@H]1c2ccccc2C[C@]1(Cc1ccccc1)C1=Cc2ccccc2C1 (mixture of isomers) [Compound 5, (R,S and SR)2-Benzyl-2,3-dihydro-1H,1′H-2,2′-biinden-1-ol] | 72 | 62 | inhibited IL2 release | 32.00 | 156.86 | 87.25 | 133.61 | 164.41 | 124.97 | 21.85 | 107.11 | 64.65 | 99.00 | 127.84 | 97.18 | 10.90 | 53.43 | 83.25 | 60.20 | 97.38 | IL-2 % Control (3) ([3]; 3 uM): 74.02%; IL-2 [ ]pg/ml (1) ([3]; 10 uM): 8.75 pg/mL; IL-2 % Control (1) ([3]; 10 uM): 42.89%; IL-2 [ ]pg/ml (2) ([3]; 10 uM): 63.80 pg/mL; IL-2 % Control (2) ([3]; 10 uM): 97.70%; IL-2 [ ]pg/ml (3) ([3]; 10 uM): 70.72 pg/mL; IL-2 % Control (3) ([3]; 10 uM): 53.76%; IL-2 [ ]pg/ml (1) ([3]; 30 uM): 16.25 pg/mL; IL-2 % Control (1) ([3]; 30 uM): 79.66%; IL-2 [ ]pg/ml (2) ([3]; 30 uM): 5.75 pg/mL; IL-2 % Control (2) ([3]; 30 uM): 8.81%; IL-2 [ ]pg/ml (3) ([3]; 30 uM): 6.69 pg/mL; IL-2 % Control (3) ([3]; 30 uM): 5.08%; IL-2 [ ]pg/ml (1) ([3]; 100 uM): -10.40 pg/mL; IL-2 % Control (1) ([3]; 100 uM): −50.98%; IL-2 [ ]pg/ml (2) ([3]; 100 uM): -13.05 pg/mL; IL-2 % Control (2) ([3]; 100 uM): −19.98%; IL-2 [ ]pg/ml (3) ([3]; 100 uM): 0.28 pg/mL; IL-2 % Control (3) ([3]; 100 uM): 0.21% |
| O[C@H]1c2ccccc2C[C@]1(Cc1ccccc1)C1=Cc2ccccc2C1 (mixture of isomers) [Compound 6, (S,S and RR)2-Benzyl-2,3-dihydro-1H,1′H-2,2′-biinden-1-ol] | 71 | 50 | inhibited IL2 release | 63.72 | 87.26 | 74.50 | 114.09 | 101.75 | 77.34 | 58.72 | 80.41 | 51.60 | 79.02 | 112.44 | 85.47 | 47.83 | 65.50 | 29.15 | 44.64 | 104.44 | IL-2 % Control (3) ([3]; 3 uM): 79.39%; IL-2 [ ]pg/ml (1) ([3]; 10 uM): 27.72 pg/mL; IL-2 % Control (1) ([3]; 10 uM): 37.96%; IL-2 [ ]pg/ml (2) ([3]; 10 uM): 36.15 pg/mL; IL-2 % Control (2) ([3]; 10 uM): 55.36%; IL-2 [ ]pg/ml (3) ([3]; 10 uM): 75.19 pg/mL; IL-2 % Control (3) ([3]; 10 uM): 57.15%; IL-2 [ ]pg/ml (1) ([3]; 30 uM): 4.72 pg/mL; IL-2 % Control (1) ([3]; 30 uM): 6.47%; IL-2 [ ]pg/ml (2) ([3]; 30 uM): 47.60 pg/mL; IL-2 % Control (2) ([3]; 30 uM): 72.89%; IL-2 [ ]pg/ml (3) ([3]; 30 uM): 16.47 pg/mL; IL-2 % Control (3) ([3]; 30 uM): 12.52%; IL-2 [ ]pg/ml (1) ([3]; 100 uM): -10.11 pg/mL; IL-2 % Control (1) ([3]; 100 uM): −13.85%; IL-2 [ ]pg/ml (2) ([3]; 100 uM): -19.75 pg/mL; IL-2 % Control (2) ([3]; 100 uM): −30.25%; IL-2 [ ]pg/ml (3) ([3]; 100 uM): 1.97 pg/mL; IL-2 % Control (3) ([3]; 100 uM): 1.50% |
